# Laboratory results: patent US20140094465A1, “Compounds as S-Nitrosoglutathione Reductase Inhibitors” (N30 PHARMACEUTICALS, INC., priority 2011, published 2014)
# Target: T1, S-nitrosoglutathione reductase (GSNOR) (Homo sapiens, UniProt P11766)
# T1 construct: made in house; host or cells: E. coli
# Experiment: GSNOR assay (inhibition of GSNOR activity, NADH absorbance at 340 nm)
# Assay type: biochemical
# Settings: GSNOR inhibitor activity, Tables 1-6; read-out: IC50 range
# Description: Various compounds were tested in vitro for their ability to inhibit GSNOR activity.
# GSNOR expression and purification is described in Biochemistry 2000, 39, 10720-10729.
# Pre-cultures were grown from stabs of a GSNOR glycerol stock in 2XYT media containing 100 ug/ml ampicillin after an overnight incubation at 37° C. […] GSNOR expression was induced with 0.1% arabinose in an overnight incubation at 20° C.
# E. coli cell paste was lysed by nitrogen cavitation and the clarified lysate purified by Ni affinity chromatography on an AKTA FPLC (Amersham Pharmacia). The column was eluted in 20 mM Tris pH 8.0/250 mM NaCl with a 0-500 mM imidazole gradient. Eluted GSNOR fractions containing the Smt-GSNOR fusion were digested overnight with Ulp-1 at 4° C. to remove the affinity tag then re-run on the Ni column under the same conditions. GSNOR was recovered in the flowthrough fraction and for crystallography is further purified by Q-Sepharose and Heparin flowthrough chromatography in 20 mM Tris pH 8.0, 1 mM DTT, 10 uM ZnSO4.
# GSNOR assay: GSNO and enzyme/NADH Solutions are made up fresh each day. The solutions are filtered and allowed to warm to room temperature. GSNO solution: 100 mM NaPO4 (pH 7.4), 0.480 mM GSNO. 396 μL of GSNO Solution is added to a cuvette followed by 8 μL of test compound in DMSO (or DMSO only for full reaction control) and mixed with the pipette tip. Compounds to be tested are made up at a stock concentration of 10 mM in 100% DMSO. 2 fold serial dilutions are done in 100% DMSO. 8 μL of each dilution are added to an assay so that the final concentration of DMSO in the assay is 1%. The concentrations of compounds tested range from 100 to 0.003 μM. Enzyme/NADH solution: 100 mM NaPO4 (pH 7.4), 0.600 mM NADH, 1.0 μg/mL GSNO Reductase. 396 μL of the Enzyme/NADH solution is added to the cuvette to start the reaction. The cuvette is placed in the Cary 3E UV/Visible Spectrophotometer and the change in 340 nm absorbance/min at 25° C. is recorded for 3 minutes. The assays are done in triplicate for each compound concentration. IC50's for each compound are calculated using the standard curve analysis in the Enzyme Kinetics Module of SigmaPlot.
# Final assay conditions: 100 mM NaPO4, pH 7.4, 0.240 mM GSNO, 0.300 mM NADH, 0.5 μg/mL GSNO Reductase, and 1% DMSO. Final volume: 800 μL/cuvette.
# T1 sequence (P11766 whole entry): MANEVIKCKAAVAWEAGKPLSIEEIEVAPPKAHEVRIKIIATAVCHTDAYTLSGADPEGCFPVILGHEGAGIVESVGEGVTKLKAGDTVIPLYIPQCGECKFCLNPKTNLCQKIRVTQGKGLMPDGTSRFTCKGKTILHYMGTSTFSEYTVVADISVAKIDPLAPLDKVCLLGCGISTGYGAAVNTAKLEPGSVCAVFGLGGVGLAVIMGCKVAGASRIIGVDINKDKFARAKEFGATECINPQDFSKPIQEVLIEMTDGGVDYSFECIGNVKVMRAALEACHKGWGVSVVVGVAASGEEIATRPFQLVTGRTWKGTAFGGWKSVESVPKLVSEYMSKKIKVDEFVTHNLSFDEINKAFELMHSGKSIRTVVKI
row,IC50,SMILES
1,100 to 1000 nM,O=C(O)[C@H]1CC[C@H](c2nc3ccc(O)cc3cc2Cl)CC1 [Compound I-35]
2,100 to 1000 nM,"O=C(O)c1ccc(NC(=O)c2ccc(O)cc2C(F)(F)F)cc1 [VI-14, 4-(4-hydroxy-2-(trifluoromethyl)benzamido)benzoic acid]"
3,< 100 nM,COc1cc(C(=O)O)ccc1-c1c(C(F)(F)F)oc2cc(O)ccc2c1=O [IV-20]
4,< 100 nM,"O=C(O)c1ccc(CC(=O)c2ccc(O)c(F)c2)c(F)c1 [VI-4, 3-fluoro-4-(2-(3-fluoro-4-hydroxyphenyl)-2-oxoethyl)benzoic acid]"
5,1000 to 10000 nM,COc1cc(Oc2c(C(F)(F)F)oc3cc(O)ccc3c2=O)ccc1C(=O)O [Compound V-5]
6,< 100 nM,O=C(O)c1ccc(-c2ccc3cc(O)ccc3n2)cc1F [Compound I-10]
7,< 100 nM,Cc1cc(C(=O)O)ccc1-c1ncc2cc(O)ccc2n1 [II-4]
8,< 100 nM,"Cc1cc(C(=O)O)ccc1-c1cc(F)c2c(F)c(O)ccc2c1 [III-41, 4-(4,5-difluoro-6-hydroxynaphthalen-2-yl)-3-methylbenzoic acid]"
9,1000 to 10000 nM,O=C(O)c1ccc(-c2ccc3cc(O)ccc3c2)cn1 [III-4]
10,< 100 nM,O=c1c(C2CCC(c3nn[nH]n3)CC2)c(C(F)(F)F)oc2cc(O)ccc12 (stereo not drawn) [IV-36]
11,1000 to 10000 nM,"O=C(O)[C@H]1CC[C@@H](c2nc3ccc(O)cc3nc2C(F)(F)F)CC1 [II-28, (cis)-4-(6-hydroxy-3-(trifluoromethyl)quinoxalin-2-yl)cyclohexanecarboxylic acid]"
12,< 100 nM,"O=C(O)c1ccc(-c2cc(F)c3c(F)c(O)ccc3c2)c(F)c1 [III-40, 4-(4,5-difluoro-6-hydroxynaphthalen-2-yl)-3-fluorobenzoic acid]"
13,< 100 nM,"O=C(O)c1ccc(CC(=O)c2ccc(O)c(F)c2F)c(F)c1 [VI-3, 4-(2-(2,3-difluoro-4-hydroxyphenyl)-2-oxoethyl)-3-fluorobenzoic acid]"
14,1000 to 10000 nM,O=C(O)c1ncc(-c2ccc3cc(O)ccc3c2)cn1 [III-14]
15,100 to 1000 nM,"O=C(O)c1ccc(Oc2c(C(F)(F)F)oc3cc(O)ccc3c2=O)cc1O [Compound V-13, 2-hydroxy-4-(7-hydroxy-4-oxo-2-(trifluoromethyl)-4H-chromen-3-yloxy)benzoic acid]"
16,< 100 nM,Oc1ccc2nc(-c3ccc(-c4nn[nH]n4)cc3Cl)ccc2c1 [Compound I-23]
17,< 100 nM,N#Cc1c(-c2ccc(C(=O)O)cc2F)ccc2cc(O)ccc12 [III-29]
18,100 to 1000 nM,O=c1nc(-c2ccc(-c3ccc4cc(O)ccc4n3)cc2)s[nH]1 [Compound I-39]
19,< 100 nM,Cc1cc2cc(O)ccc2nc1-c1ccc(-c2nnn[nH]2)cc1 [Compound I-2]
20,< 100 nM,"O=C(O)c1ccc(-c2cc(F)c3c(F)c(O)ccc3c2)cc1 [III-42, 4-(4,5-difluoro-6-hydroxynaphthalen-2-yl)benzoic acid]"

row,IC50,SMILES
1,< 100 nM,O=C(O)c1ccc(-c2ccc3cc(O)ccc3n2)c(C(F)(F)F)c1 [Compound I-30]
2,< 100 nM,Cc1cc(C(=O)O)ccc1-c1ccc2c(F)c(O)ccc2n1 [Compound I-58]
3,100 to 1000 nM,"O=C(O)c1ccc(COc2ccc(O)c(F)c2)c(F)c1 [VI-23, 3-fluoro-4-((3-fluoro-4-hydroxyphenoxy)methyl)benzoic acid]"
4,< 100 nM,CN(C)c1cc(C(=O)O)ccc1-c1ccc2cc(O)ccc2c1 [III-5]
5,< 100 nM,"O=C(O)c1ccc(-c2cc3ccc(O)cc3cc2Cl)cc1 [III-22, 4-(3-chloro-6-hydroxynaphthalen-2-yl)benzoic acid]"
6,< 100 nM,"O=C(O)c1ccc(-c2cc(F)c3cc(O)ccc3c2)cc1 [III-39, 4-(4-fluoro-6-hydroxynaphthalen-2-yl)benzoic acid]"
7,1000 to 10000 nM,"O=C(O)c1ccc(Oc2c(-c3ccccc3)oc3cc(O)ccc3c2=O)cc1 [Compound V-2, 4-((7-hydroxy-4-oxo-2-phenyl-4H-chromen-3-yl)oxy)benzoic acid]"
8,< 100 nM,O=C(O)c1ccc(-c2nc3ccc(O)cc3nc2C(F)(F)F)c(Cl)c1 [II-8]
9,1000 to 10000 nM,O=C(O)c1ccc(-c2ccc3cc(O)ccc3c2)nn1 [III-11]
10,1000 to 10000 nM,"O=C(O)c1ccc(Sc2c(C(F)(F)F)oc3cc(O)ccc3c2=O)cc1 [Compound V-11, 4-(7-hydroxy-4-oxo-2-(trifluoromethyl)-4H-chromen-3-ylthio)benzoic acid]"
11,1000 to 10000 nM,O=C(O)C1CCN(c2ccc3cc(O)ccc3n2)CC1 [Compound I-5]
12,< 100 nM,"O=C(O)c1ccc(COc2ccc(O)c(F)c2F)c(F)c1 [VI-21, 4-((2,3-difluoro-4-hydroxyphenoxy)methyl)-3-fluorobenzoic acid]"
13,1000 to 10000 nM,"O=c1c(Oc2ccc(-c3nnn[nH]3)cc2)c(C(F)(F)F)oc2cc(O)ccc12 [Compound V-6, 3-(4-(1H-tetrazol-5-yl)phenoxy)-7-hydroxy-2-(trifluoromethyl)-4H-chromen-4-one]"
14,100 to 1000 nM,"Cc1c(-c2ccc(C(=O)O)cc2)ncc2cc(O)ccc12 [II-25, 4-(7-hydroxy-4-methylisoquinolin-3-yl)benzoic acid]"
15,< 100 nM,"O=c1c(Oc2ccc([N+](=O)[O-])c(O)c2)c(C(F)(F)F)oc2cc(O)ccc12 [Compound V-16, 7-hydroxy-3-(3-hydroxy-4-nitrophenoxy)-2-(trifluoromethyl)-4H-chromen-4-one]"
16,< 100 nM,"O=C(O)[C@H]1CC[C@H](c2nc3ccc(O)cc3nc2C(F)(F)F)CC1 [II-27, (trans)-4-(6-hydroxy-3-(trifluoromethyl)quinoxalin-2-yl)cyclohexanecarboxylic acid]"
17,100 to 1000 nM,O=C(O)c1cnc(-c2ccc3cc(O)ccc3c2)nc1 [III-9]
18,100 to 1000 nM,"O=c1c(Oc2ccc(O)c([N+](=O)[O-])c2)c(C(F)(F)F)oc2cc(O)ccc12 [Compound V-17, 7-hydroxy-3-(4-hydroxy-3-nitrophenoxy)-2-(trifluoromethyl)-4H-chromen-4-one]"
19,100 to 1000 nM,O=C(O)c1ccc(-c2ccc3cc(O)ccc3c2)nc1 [III-7]
20,< 100 nM,"O=C(O)c1ccc(-c2ccc3cc(O)ccc3n2)c(Br)c1 [Compound I-46, 3-bromo-4-(6-hydroxyquinolin-2-yl)benzoic acid]"

# Same assay, conditions: Table 7; GSNOR inhibition, IC50 range class a/b/c; read-out: IC50
row,IC50,SMILES
1,< 100 nM,"CC(C)CCn1c(-c2ccc(O)cc2)ccc1-c1ccc(C(=O)O)s1 [VII-27, 5-(5-(4-hydroxyphenyl)-1-isopentyl-1H-pyrrol-2-yl)thiophene-2-carboxylic acid]"
2,1000 to 10000 nM,"O=C(O)c1ccc(-c2ccc(-c3ccc(O)cc3)[nH]2)cc1 [VII-23, 4-(5-(4-hydroxyphenyl)-1H-pyrrol-2-yl)benzoic acid]"
3,< 100 nM,"CC(C)Cn1c(-c2ccc(O)cc2)ccc1-c1ccc(C(=O)O)cc1 [VII-29, 4-(5-(4-hydroxyphenyl)-1-isobutyl-1H-pyrrol-2-yl)benzoic acid]"
4,< 100 nM,"COCCn1c(-c2ccc(O)cc2)ccc1-c1ccc(C(=O)O)s1 [VII-25, 5-(5-(4-hydroxyphenyl)-1-(2-methoxyethyl)-1H-pyrrol-2-yl)thiophene-2-carboxylic acid]"
5,100 to 1000 nM,"O=C(O)c1ccc(-c2csc(-c3ccc(O)cc3)c2)s1 [VII-20, 5′-(4-hydroxyphenyl)-[2,3′-bithiophene]-5-carboxylic acid]"
6,1000 to 10000 nM,"O=C(O)c1ccc(-c2cnc(-c3ccc(O)cc3)nc2)cc1 [VII-15, 4-(2-(4-hydroxyphenyl)pyrimidin-5-yl)benzoic acid]"
7,100 to 1000 nM,"O=C(O)c1ccc(-c2cc(-c3ccc(O)cc3)cs2)s1 [VII-19, 4′-(4-hydroxyphenyl)-[2,2′-bithiophene]-5-carboxylic acid]"
8,< 100 nM,"O=C(O)c1ccc(-c2cnc(-c3ccc(O)cc3)s2)s1 [VII-16, 5-(2-(4-hydroxyphenyl)thiazol-5-yl)thiophene-2-carboxylic acid]"
9,100 to 1000 nM,"COCCn1c(-c2ccc(O)cc2)ccc1-c1ccc(C(=O)O)cc1 [VII-33, 4-(5-(4-hydroxyphenyl)-1-(2-methoxyethyl)-1H-pyrrol-2-yl)benzoic acid]"
10,100 to 1000 nM,"O=C(O)c1ccc(-c2ncc(-c3ccc(O)cc3)s2)s1 [VII-13, 5-(5-(4-hydroxyphenyl)thiazol-2-yl)thiophene-2-carboxylic acid]"

# Same assay, conditions: Table 8; GSNOR inhibition, IC50 range class a/b/c; read-out: IC50
row,IC50,SMILES
1,1000 to 10000 nM,"O=C1c2ccc(O)cc2CCN1[C@H]1CC[C@H](C(=O)O)CC1 [VIII-16, (trans)-4-(6-hydroxy-1-oxo-3,4-dihydroisoquinolin-2(1H)-yl)cyclohexanecarboxylic acid]"
